In patent US5230802A, “Extraction process using a novel organic acid as a liquid ion exchanger” (Philip Morris Incorporated, priority 1992, dated 1993):
Where “and” joins values, the source holds several entries; their conditions need not be identical. Equal entries are not always repeated. Where two headings read alike, the source gives them in different places.

Columns and labels:
[1] = 180 min; 5% LIX, 20 mM nicotine, 4 L FS; ND = None detected
From the text: (§1) The apparatus used is a Model MSX-750 laboratory unit purchased from Sepracor, Inc., Marlborough, Mass.; it is a 3-panel, 3-loop, 2-membrane operation. As shown in the Figure, each panel has a solvent circulation pump (1), pressure gauge, flow rotometer, and multiple valves for control of the solvent input and output (not shown). A separate pump controller (not shown) provides variable speed and on/off controls for all three panels. Analysis ports are built into the unit to allow pH readings at the feedstock (2)- and recovery panels (3)- and automatic pH titration at the recovery solution panel. Sample aliquots can be removed from all three system solvents in line (4)- or from the reservoirs (5). The membrane modules (6) contain a hollow fiber bundle in a plastic cartridge with connectors to allow flow through the hollow fibers (lumen) with one solvent and simultaneous flow around the fibers (shell) with an "exchanging" solvent (not shown). The membrane fibers used were either regenerated cellulose (RC) or polyacrylonitrile (PAN) and were 0.5-1.5 square meters in surface area.
For this membrane separation process, solutions are recirculated at 100-900 ml/min. The feedstock reservoir volume is between 0.5 L and 8.0 L of aqueous solution which is 0.1-10.0% dissolved base, e.g., pyridine or nicotine, at a pH between 4 and 10. […]

[2] = 2% LIX in Isopar K, 1.5 m2 PAN
From the text: as §1
For this membrane separation process, solutions are recirculated at 100-900 ml/min. The feedstock reservoir volume is between 0.5 L and 8.0 L of aqueous solution which is 0.1-10.0% dissolved base, e.g., pyridine or nicotine, at a pH between 4 and 10. The feedstock solution can also contain other compounds, e.g., tobacco components. The organic solvent (OS) reservoir contains from 300-1000 mL of a water-immiscible solvent like hexane, heptane, octane, nonane, decane or Isopar K (Exxon) to which is added 0.1-10.0% of LIX. The OS is recirculated in the center panel through the lumen of both membrane modules and is always kept at 2-10 psi higher than the aqueous phases to maintain phase separation. The aqueous recovery solution is maintained at a constant pH (1.0-4.0) via an automatic titration unit (Metrohm Model 665 Dosimat with Model 614 Impulsomat and Model 632 Digital-pH-Meter, Metrohm Ltd., CH-9100 Herisau, Switzerland) using 1.0 M sulfuric acid to provide a pH differential and as a collection sink for the base being transferred, e.g., pyridine or nicotine.
Seven consecutive runs were performed with the apparatus outlined in Example XII without the use of a LIX in the OS, changing to a fresh 1 liter 0.32% nicotine FS each run and leaving the RS alone to concentrate the nicotine recovered (Section A). Prior to run 8, fresh FS, OS and RS solutions were placed within the system. For the five consecutive runs 8-12, 2% LIX (Example X) in Isopar K was used as the OS, 0.32% nicotine in deionized water for FS (one liter fresh for each run), and a fresh deionized water RS was left in place for all five runs to concentrate the nicotine (Section B). The volume of the RS increased during the runs 8-12 because the nicotine was transferred into it and because acid solution was pumped into it to maintain a pH of ca. 3. Then three additional runs 13-15 were made using the same OS and the same RS (to form a more concentrated nicotine solution) from Section B; 4 L FS solutions of 0.32% nicotine in deionized water (a fresh solution each run) were used (Section C). […] The OS continues to operate without replacement.

[3] = Organic phase/aqueous phase partition coefficient of nicotine in presence of LIX (Table I); assay type: physicochemical; conditions: in words; for solubility of the nicotine-LIX complex: water versus hexane
From the text: As hereinbefore disclosed, two different experimental criteria can be used to measure the capability of a LIX. First, the organic phase/water phase partition coefficient (PC) can be determined. The partition coefficient, as used herein, can be defined as the ratio of the amount of a substance dissolved in one phase in relation to the amount of the substance dissolved in the second phase. Accordingly, in determining the partition coefficient in the solvent extraction of nicotine from a tobacco processing fluid to another, the ratio would be the concentration of nicotine in the organic (extraction) phase divided by the concentration of nicotine in the aqueous (process) phase. If the partition coefficient increases, i.e., more of the nicotine is soluble in the organic phase, in the presence of a LIX, then this LIX meets one of the objectives for a successful nicotine transfer agent.
Table I is a presentation of the partition coefficients of various liquid ion exchangers, including control experiments where no LIX are utilized. […] Capabilities of the LIX as well as the components of the various phases must all be considered.

CCCCC(CC)COC(=O)[C@H](OC(=O)C(CC)CCCC)[C@@H](OC(=O)C(CC)CCCC)C(=O)O (stereo partly drawn) [Example X, (2R, 3R, 2'.xi., 2''.xi., 2'''.xi.)-Mono(2'-Ethylhexyl) 2,3-Bis(2-ethylhexanoyloxy)butanedioate]
Percent (%) remaining in FS [1]: 10.0% | Percent (%) nicotine remaining in FS ([2]; Section B, 0 min, 1 liter FS at 0.32% nicotine): 100% | Percent (%) nicotine remaining in FS ([2]; Section B, 15 min, 1 liter FS at 0.32% nicotine): 49% and 50% | Percent (%) nicotine remaining in FS ([2]; Section B, 30 min, 1 liter FS at 0.32% nicotine): 37% and 36% and 35% | Percent (%) nicotine remaining in FS ([2]; Section B, 45 min, 1 liter FS at 0.32% nicotine): 23% and 24% | Percent (%) nicotine remaining in FS ([2]; Section B, 60 min, 1 liter FS at 0.32% nicotine): 14% and 13% | Percent (%) nicotine remaining in FS ([2]; Section C, 0 min, 4 liters FS at 0.32% nicotine): 100% | Percent (%) nicotine remaining in FS ([2]; Section C, 60 min, 4 liters FS at 0.32% nicotine): 51% | Percent (%) nicotine remaining in FS ([2]; Section C, 120 min, 4 liters FS at 0.32% nicotine): 35% and 37% | Percent (%) nicotine remaining in FS ([2]; Section C, 180 min, 4 liters FS at 0.32% nicotine): 21% and 23% | Percent (%) nicotine remaining in FS ([2]; Section C, 240 min, 4 liters FS at 0.32% nicotine): 13%

CCCCC(CC)COC(=O)[C@H](OC(C)=O)[C@@H](OC(C)=O)C(=O)O (mixture of isomers) [Example III, (2R, 3R, 2'R)- and (2R, 3R, 2'S)-Mono(2'-Ethylhexyl) 2,3-Bis(acetyloxy)butanedioate]
partition coefficient compared with no LIX present [3]: less than without any LIX present | solubility of the nicotine-LIX complex [3]: more water soluble than hexane soluble

CCCCC(CC)COC(=O)[C@H](OC(=O)CC)[C@@H](OC(=O)CC)C(=O)O (mixture of isomers) [Example V, (2R, 3R, 2'R)- and (2R, 3R, 2'S)-Mono(2'-Ethylhexyl) 2,3-Bis(propionyloxy)butanedioate]
partition coefficient compared with no LIX present [3]: less than without any LIX present | solubility of the nicotine-LIX complex [3]: more water soluble than hexane soluble
